Laboratory results published in paper PMC8333425, “Discovery of a dual Ras and ARF6 inhibitor from a GPCR endocytosis screen” (Nature Communications, 2021).
Values joined by “and” are separate entries in the source; they are usually repeats but may differ in a detail not shown here. Equal values may be shown once.

Tests used:
[1] = system: β-arrestin2 recruitment to B2R; test: BRET recruitment of β-arrestin2 to B2R; assay type: cell-based, human
Method: (§1) HEK293SL cells were seeded at a density of 7.5 × 10^5 cells per 100-mm dish and 24 h later, transiently transfected as such. For receptor internalization experiments, cells were transfected with 0.12 μg AT1R-RlucII, B2R-RlucII, or β2AR-RlucII and 0.48 μg of either rGFP-CAAX (to assess removal from the PM) or rGFP-FYVE (to assess accumulation in the endosomes). For β-arrestin recruitment assays, cells were transfected with 0.48 μg of receptor-YFP along with 0.12 μg of β-arrestin-RlucII. For β-arrestin/AP-2 binding experiments, cells were transfected with 1 μg Flag-AT1R, 1 μg β2-Adaptin-YFP, and 0.12 μg β-arrestin2-RlucII. For G protein activation, cells were transfected with 3 μg of sp-Flag-AT1R along with either 4.5 μg of the Gαq-polycistronic BRET sensor or 0.24 μg of the Gαi3-RlucII and 0.6 μg of GFP10-Gγ2 and Gβ1 sensors or 0.12 μg PKN-RBD-RlucII and 0.48 μg of rGFP-CAAX. For PKC activation, cells were transfected with 3 μg of sp-Flag-AT1R and 0.18 μg of the PKC sensor. For GTPase activation experiments, cells were transfected with 1 μg Flag-AT1R, 0.48 μg of rGFP-CAAX, and either 0.12 μg of GGA3-PBD-RlucII, PAK-CRIB-RlucII or Raf-RBD-RlucII. For biosensor validation experiments, cells were additionally transfected with 500 ng Flag-K-Ras-WT, Flag-K-Ras-G12V, Flag-K-Ras-SOS-CAAX, HA-ARF6-WT, HA-ARF6-T27N, Myc-Rac1-WT, Myc-Rac1-Q61L or Myc-Rac1-T17N. For PI3K/Akt activation experiments, cells were transfected with 0.48 μg of rGFP-CAAX and 0.12 μg of Akt (PH)-RlucII. After 18 h of transfection, the media was replaced and cells were divided for subsequent experiments. Cells were detached and seeded onto poly-L-ornithine-coated 96-well flat white bottom plates (BrandTech Scientific) at a density of 2.5 × 10^4 cells per well in media. The next day, cells were washed once with Tyrode’s buffer (140 mM NaCl, 2.7 mM KCl, 1 mM CaCl2, 12 mM NaHCO3, 5.6 mM D-glucose, 0.5 mM MgCl2, 0.37 mM NaH2PO4, 25 mM HEPES, pH 7.4) and left in Tyrode’s buffer. For kinetics of β-arrestin recruitment or β-arrestin binding to receptor and AP-2 experiments, cells were serum starved for 30 min, pretreated with 21 (50 µM) or Barbadin (100 µM) for 30 min, stimulated with 100 nM AngII or 1 µM BK and BRET signals were monitored at indicated times using a Victor X Light plate reader (PerkinElmer). Coelenterazine H (final concentration of 5 µM) was added 3–5 min prior to BRET measurements. Filter set was 460/80 nm and 535/30 nm for detecting the RlucII Renilla luciferase (donor) and YFP (acceptor) light emissions, respectively. The BRET ratio was determined by calculating the ratio of the light emitted by YFP over the light emitted by the RlucII. For G protein activation, cells were serum starved, pretreated with compounds for 30 min, stimulated with 100 nM AngII for 2 min (Gαq, Gαi3, and Rho sensors) or 5 min (PKC sensor). For the kinetics of GTPase and PI3K/Akt activation, cells were serum starved, pretreated with 21 (50 µM) or Wortmannin (200 nM) for 30 min, stimulated with ligand (100 nM AngII or 100 ng/ml EGF) and BRET signals were monitored at indicated times. For concentration-response curves, cells were serum-starved, pretreated with various concentrations of compounds for 30 min and stimulated with ligand (100 nM AngII, 1 µM BK, 10 µM Isoproterenol (Iso) or 100 ng/ml EGF) in Tyrode’s buffer for 30 min for receptor internalization, 10 min for ARF6, 2 min for Rac and Rho activation and 5 min for Ras activation and PI3K/Akt activation. BRET signals were monitored using a Synergy2 (BioTek) microplate reader and coelenterazine 400a (final concentrations of 5 µM) added 3–5 min prior to BRET measurements. Filter set was 410/80 nm and 515/30 nm for detecting the RlucII Renilla luciferase (donor) and rGFP/GFP10 (acceptor) light emissions, respectively. The BRET ratio was determined by calculating the ratio of the light emitted by rGFP/GFP10 over the light emitted by the RlucII.

[2] = system: β-arrestin1 recruitment to AT1R; test: BRET recruitment of β-arrestin1 to AT1R; assay type: cell-based, human; conditions: for AngII-promoted BRET, β-arrestin1 (Barr1) recruitment to AT1R: Comp 21 50 μM, individual experiments
Method: as §1

For `CC(C)C(=O)N1CCN(c2ccc(NC(=O)c3cc4ccccc4o3)cc2Cl)CC1` [Compound 21], the “β-arrestin2 recruitment to B2R at the PM” value ([1]; 50 μM) was “did not preclude”, the “BK-promoted BRET, Barr2” value ([1]; Time 0 min) was 0 and the “BK-promoted BRET, Barr2” value ([1]; Time 5 min, listed as Comp 21) was 0.1301 and 0.1897 and 0.1572. For the same compound, the “BK-promoted BRET, Barr2” value ([1]; Time 10 min, listed as Comp 21) was 0.1662 and 0.2107 and 0.2145, the “BK-promoted BRET, Barr2” value ([1]; Time 15 min, listed as Comp 21) was 0.1989 and 0.1955 and 0.2222 and the “BK-promoted BRET, Barr2” value ([1]; Time 30 min, listed as Comp 21) was 0.2065 and 0.1814 and 0.2273. For the same compound, the “BK-promoted BRET, Barr2” value ([1]; Time 60 min, listed as Comp 21) was 0.2055 and 0.169 and 0.2219, the “β-arrestin1 recruitment to AT1R at the PM” value ([2]; 50 μM) was “did not preclude” and the “AngII-promoted BRET, β-arrestin1 (Barr1) recruitment to AT1R” value (“AngII-promoted BRET, β-arrestin1” for short) ([2]; time 0 min) was 0. The “AngII-promoted BRET, β-arrestin1” value ([2]; time 5 min) was 0.07621 and 0.08371 and 0.04185, the “AngII-promoted BRET, β-arrestin1” value ([2]; time 10 min) was 0.1164 and 0.1114 and 0.05569 and the “AngII-promoted BRET, β-arrestin1” value ([2]; time 15 min) was 0.1198 and 0.1209 and 0.06044. For the same compound, the “AngII-promoted BRET, β-arrestin1” value ([2]; time 30 min) was 0.1393 and 0.143 and 0.07152 and the “AngII-promoted BRET, β-arrestin1” value ([2]; time 60 min) was 0.1361 and 0.1426 and 0.1043.
